Here are results for three molecules from ChEMBL document CHEMBL1126228, “2,3:18,19-dioxidosqualene: synthesis and activity as a potent inhibitor of 2,3-oxidosqualene-lanosterol cyclase in rat liver microsomes” (Bioorg Med Chem Lett, 1992).

The target of the assay is T1, Lanosterol synthase (Rattus norvegicus, UniProt P48450).
T1 sequence (P48450 whole entry): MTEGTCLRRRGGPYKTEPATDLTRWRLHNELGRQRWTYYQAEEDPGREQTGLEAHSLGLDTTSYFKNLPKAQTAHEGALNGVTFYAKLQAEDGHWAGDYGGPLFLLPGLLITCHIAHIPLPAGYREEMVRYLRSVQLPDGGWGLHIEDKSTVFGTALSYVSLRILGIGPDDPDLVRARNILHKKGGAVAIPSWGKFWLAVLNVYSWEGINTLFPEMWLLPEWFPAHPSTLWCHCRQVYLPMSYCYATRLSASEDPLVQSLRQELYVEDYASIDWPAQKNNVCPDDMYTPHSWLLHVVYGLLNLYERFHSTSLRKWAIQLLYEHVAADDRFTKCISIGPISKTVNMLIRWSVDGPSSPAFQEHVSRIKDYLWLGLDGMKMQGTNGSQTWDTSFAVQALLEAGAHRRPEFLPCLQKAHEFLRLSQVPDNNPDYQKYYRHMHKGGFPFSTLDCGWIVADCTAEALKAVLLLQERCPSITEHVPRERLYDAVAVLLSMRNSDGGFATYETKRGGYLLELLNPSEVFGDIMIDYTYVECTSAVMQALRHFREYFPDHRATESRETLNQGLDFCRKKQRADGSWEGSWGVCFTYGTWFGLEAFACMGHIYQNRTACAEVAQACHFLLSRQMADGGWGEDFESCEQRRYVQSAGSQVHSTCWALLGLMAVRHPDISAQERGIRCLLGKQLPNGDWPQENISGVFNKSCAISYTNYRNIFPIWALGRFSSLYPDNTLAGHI
The assay can be described thus: Compound was evaluated for inhibitory activity against 2,3-oxidosqualene-lanosterol cyclase in rat liver microsomes. More on the design: species or system Microsome.

As for `CC(C)=CCCC1(C)OC1CC/C(C)=C/CC/C=C(\C)CC/C=C(\C)CCC1OC1(C)C` (stereo not drawn), the IC50 is 0.11 µM. This lies in the sub-micromolar range. In turn, `C/C(=C\CC/C=C(\C)CC/C=C(\C)CCC1OC1(C)C)CC/C=C(\C)CCC1OC1(C)C` (stereo not drawn) came in with a concentration for half-maximal inhibition (IC50) of 142 µM. Then `CC(C)=CCC/C(C)=C/CC/C(C)=C/CC/C=C(\C)CCC1OC1(C)CCC=C(C)C` (stereo not drawn), with 83.5 µM.
